Ratio, CC50 and IC50 data for eight compounds are collected here from ChEMBL document CHEMBL4665749, “Usnic Acid Conjugates with Monoterpenoids as Potent Tyrosyl-DNA Phosphodiesterase 1 Inhibitors” (J Nat Prod, 2020).

Experiment [1] concerns HeLa. In words: Potency index, ratio of CC50 of topotecan to CC50 of compound for human HeLa cells assessed as reduction in cell viability after 3 days in presence of topotecan by fluorometric assay. Format: functional.
Experiment [2] deals with HeLa. Put plainly: Cytotoxicity against human HeLa cells assessed as reduction in cell viability after 3 days by fluorometric assay. The format is functional. To be noted: 72 h.
Experiment [3] deals with HeLa. In words: Cytotoxicity against human HeLa cells assessed as reduction in cell viability after 3 days in presence of topotecan by fluorometric assay. Format: functional. To be noted: 72 h.
The target of experiment [4] is Tyrosyl-DNA phosphodiesterase 1 (Homo sapiens, UniProt Q9NUW8). Put plainly: Inhibition of recombinant TDP1 (unknown origin) expressed in Escherichia coli using 5'-FAM/3'-BHQ1 tagged oligonucleotide as substrate by fluorescence assay.

A value given as a limit tells only on which side of the number the result lay.

Sequence of Tyrosyl-DNA phosphodiesterase 1 (Q9NUW8 whole entry): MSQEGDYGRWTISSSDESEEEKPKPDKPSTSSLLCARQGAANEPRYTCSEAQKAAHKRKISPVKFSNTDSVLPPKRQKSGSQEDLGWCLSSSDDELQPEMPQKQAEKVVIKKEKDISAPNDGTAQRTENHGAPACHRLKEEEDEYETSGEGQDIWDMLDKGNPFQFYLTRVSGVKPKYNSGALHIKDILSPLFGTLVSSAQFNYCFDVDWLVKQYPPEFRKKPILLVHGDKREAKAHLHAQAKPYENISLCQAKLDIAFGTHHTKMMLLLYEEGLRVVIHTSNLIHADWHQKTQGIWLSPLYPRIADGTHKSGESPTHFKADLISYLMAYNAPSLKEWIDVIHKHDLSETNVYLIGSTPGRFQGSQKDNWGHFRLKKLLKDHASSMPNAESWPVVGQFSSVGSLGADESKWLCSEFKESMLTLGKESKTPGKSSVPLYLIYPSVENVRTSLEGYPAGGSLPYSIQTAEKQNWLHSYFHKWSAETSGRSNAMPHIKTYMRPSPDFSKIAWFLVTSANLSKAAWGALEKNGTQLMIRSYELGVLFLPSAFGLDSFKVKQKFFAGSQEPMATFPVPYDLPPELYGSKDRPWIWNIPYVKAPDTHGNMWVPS

For the compound `CC(=O)C1=C(O)C=C2Oc3c(-c4csc(N/N=C\C5=C[C@@H]6C[C@H](C5)C6(C)C)n4)c(O)c(C)c(O)c3[C@@]2(C)C1=O`, the Ratio with HeLa [1] stood at 1.7. Moreover, the CC50 (as a rule, the concentration that lowers cell viability or growth by half) in the experiment on HeLa [2] is more than 100 µM; with HeLa [3], 2.7 µM. Further, in experiment [4], the IC50 (as a rule, the concentration that inhibits the measured activity by half) is 0.045 µM.
In the case of `CC[C@@]1(O)C(=O)OCc2c1cc1n(c2=O)Cc2cc3c(CN(C)C)c(O)ccc3nc2-1` [TOPOTECAN], the cytotoxic concentration (CC50) in the experiment on HeLa [2] is 4.5 µM.
Take `CC(=O)C1=C(O)C=C2Oc3c(-c4csc(NN=CCC(C)CCC=C(C)C)n4)c(O)c(C)c(O)c3[C@@]2(C)C1=O` (stereo not given in full): the Ratio in the experiment on HeLa [1] is listed as 7.1. Further, the 50% cytotoxic concentration (CC50) in the experiment with HeLa [2] was found to be 20 µM; in the experiment with HeLa [3], 0.63 µM. The IC50 in experiment [4] is 0.0164 µM.
The matching figures for `C=C(C)[C@H]1CC=C(/C=N\Nc2nc(-c3c(O)c(C)c(O)c4c3OC3=CC(O)=C(C(C)=O)C(=O)[C@@]34C)cs2)CC1`: 3.8, 20 µM, 1.2 µM and 0.027 µM.
For `CC(=O)C1=C(O)C=C2Oc3c(-c4csc(NN=CCC(C)CCCC(C)(C)O)n4)c(O)c(C)c(O)c3[C@@]2(C)C1=O` (stereo not given in full), the CC50 in the experiment on HeLa [2] was determined as 20 µM. Moreover, in experiment [4], the IC50 was 0.139 µM.
Regarding `CC(=O)C1=C(O)C=C2Oc3c(-c4csc(N/N=C5/C[C@H]6CC[C@]5(C)C6(C)C)n4)c(O)c(C)c(O)c3[C@@]2(C)C1=O`, the Ratio in the experiment on HeLa [1] is given as 1.7. The values for the CC50 in the experiment on HeLa [2] and in the experiment with HeLa [3] were 20 µM and 2.7 µM, respectively. In experiment [4], the IC50 stood at 0.031 µM.
In the same order, the values of `CC(=O)C1=C(O)C=C2Oc3c(-c4csc(NN=C5C=C(C)[C@H]6C[C@@H]5C6(C)C)n4)c(O)c(C)c(O)c3[C@@]2(C)C1=O` (mixture of isomers) are 1.3, 20 µM, 3.5 µM and 0.046 µM.
For `CCCCCCCC=NNc1nc(-c2c(O)c(C)c(O)c3c2OC2=CC(O)=C(C(C)=O)C(=O)[C@@]23C)cs1`, the CC50 in the experiment on HeLa [2] is 20 µM. In addition, in experiment [4], the concentration for half-maximal inhibition (IC50) turned out to be 0.088 µM.
